ChEMBL document CHEMBL2406931, “The inhibitory effect of a synthetic compound, (Z)-5-(2,4-dihydroxybenzylidene) thiazolidine-2,4-dione (MHY498), on nitric oxide-induced melanogenesis” (2013)
Calls of active or inactive are those of the source. The calls are words filed in the database; no cut-off is given here.

Assays:
B16-F10 [1] = assay: Antimelanogenic activity in mouse B16F10 cells assessed as reduction of SNP-induced melanin level at 0.5 uM incubated for 1 hr prior to SNP challenge measured after 48 hrs (reference value: 282.59 +/- 47.06%); assay type: functional
B16-F10 [2] = assay: Antimelanogenic activity in mouse B16F10 cells assessed as reduction in SNP-induced phosphorylated CREB level at 0.5 to 4 uM by Western blotting analysis; assay type: functional, cell-based
B16-F10 [3] = assay: Inhibition of SNP-induced NO production in mouse B16F10 cells at 4 uM incubated 1 hr prior to SNP challenge measured after 48 hrs by Griess assay (reference value: 237.84 +/- 4.12%); values are per cent of control
B16-F10 [4] = assay: Inhibition of SNP-induced NO production in mouse B16F10 cells assessed as decrease of intracellular cGMP level at 16 uM incubated for 1 hr prior to SNP challenge measured after 30 mins by EIA relative to control; assay type: functional; details: values are per cent of control
B16-F10 [5] = assay: Inhibition of SNP-induced NO production in mouse B16F10 cells assessed as decrease of intracellular cGMP level incubated for 1 hr prior to SNP challenge measured after 30 mins by EIA relative to control; assay type: functional, cell-based
B16-F10 [6] = assay: Inhibition of SNP-induced NO production in mouse B16F10 cells at 16 uM incubated 1 hr prior to SNP challenge measured after 48 hrs by Griess assay (reference value: 237.84 +/- 4.12%); values are per cent of control
B16-F10 [7] = assay: Inhibition of SNP-induced NO production in mouse B16F10 cells assessed as decrease of intracellular cGMP level at 4 uM incubated for 1 hr prior to SNP challenge measured after 30 mins by EIA relative to control; assay type: functional; details: values are per cent of control
B16-F10 [8] = assay: Antimelanogenic activity in mouse B16F10 cells assessed as reduction of SNP-induced melanin level at 16 uM incubated for 1 hr prior to SNP challenge measured after 48 hrs (reference value: 282.59 +/- 47.06%); assay type: functional
B16-F10 [9] = assay: Antimelanogenic activity in mouse B16F10 cells assessed as reduction in SNP-induced nuclear MITF level by Western blotting analysis; assay type: functional, cell-based
[10] = biological target: T1, Tyrosinase (Mus musculus) (UniProt P11344); assay: Inhibition of tyrosinase in SNP-stimulated mouse B16F10 cells at 16 uM incubated for 1 hr prior to SNP challenge measured after 48 hrs (reference value: 198.83 +/- 11.46%); assay type: cell-based; details: B16-F10, values are per cent of control
T1 sequence (whole entry): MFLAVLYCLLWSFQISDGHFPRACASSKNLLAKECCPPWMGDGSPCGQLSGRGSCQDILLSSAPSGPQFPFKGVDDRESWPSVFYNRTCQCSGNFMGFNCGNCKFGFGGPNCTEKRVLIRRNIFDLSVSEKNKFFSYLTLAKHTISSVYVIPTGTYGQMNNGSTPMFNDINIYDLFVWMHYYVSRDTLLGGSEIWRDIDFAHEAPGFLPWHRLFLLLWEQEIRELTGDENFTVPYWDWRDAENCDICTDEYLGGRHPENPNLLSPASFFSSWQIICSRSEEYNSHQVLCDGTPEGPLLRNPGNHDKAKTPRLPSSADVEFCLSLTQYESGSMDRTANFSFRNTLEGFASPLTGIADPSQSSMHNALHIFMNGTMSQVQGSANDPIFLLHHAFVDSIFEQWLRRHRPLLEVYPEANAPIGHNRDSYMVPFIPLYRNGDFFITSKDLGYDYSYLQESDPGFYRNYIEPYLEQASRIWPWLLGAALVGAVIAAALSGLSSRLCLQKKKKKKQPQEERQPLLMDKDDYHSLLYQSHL

[11] = biological target: T1, Tyrosinase (Mus musculus); assay: Inhibition of tyrosinase in SNP-stimulated mouse B16F10 cells at 4 uM incubated for 1 hr prior to SNP challenge measured after 48 hrs (reference value: 198.83 +/- 11.46%); assay type: cell-based; details: B16-F10, values are per cent of control
B16-F10 [12] = assay: Antimelanogenic activity in mouse B16F10 cells assessed as reduction in SNP-induced phosphorylated CREB level at 16 uM by Western blotting analysis; assay type: functional, cell-based
B16-F10 [13] = assay: Inhibition of SNP-induced NO production in mouse B16F10 cells assessed as decrease of intracellular cGMP level at 0.5 uM incubated for 1 hr prior to SNP challenge measured after 30 mins by EIA relative to control; assay type: functional; details: values are per cent of control
B16-F10 [14] = assay: Antimelanogenic activity in mouse B16F10 cells assessed as reduction of SNP-induced melanin level at 4 uM incubated for 1 hr prior to SNP challenge measured after 48 hrs (reference value: 282.59 +/- 47.06%); assay type: functional
B16-F10 [15] = assay: Inhibition of SNP-induced NO production in mouse B16F10 cells at 0.5 uM incubated 1 hr prior to SNP challenge measured after 48 hrs by Griess assay (reference value: 237.84 +/- 4.12%); values are per cent of control
B16-F10 [16] = assay: Antimelanogenic activity in mouse B16F10 cells assessed as reduction of SNP-induced melanin level incubated for 1 hr prior to SNP challenge measured after 48 hrs; assay type: functional, cell-based
[17] = biological target: T1, Tyrosinase (Mus musculus); assay: Inhibition of tyrosinase in SNP-stimulated mouse B16F10 cells at 0.5 uM incubated for 1 hr prior to SNP challenge measured after 48 hrs (reference value: 198.83 +/- 11.46%); assay type: cell-based; details: B16-F10, values are per cent of control
B16-F10 [18] = assay: Antimelanogenic activity in mouse B16F10 cells assessed as reduction in SNP-induced tyrosinase protein level by Western blotting analysis; assay type: functional, cell-based
B16-F10 [19] = assay: Inhibition of SNP-induced NO production in mouse B16F10 cells incubated 1 hr prior to SNP challenge measured after 48 hrs by Griess assay; assay type: functional, cell-based
[20] = biological target: T1, Tyrosinase (Mus musculus); assay: Inhibition of tyrosinase in mouse B16F10 cells at 30 uM incubated for 1 hr prior to SNP challenge measured after 48 hrs (reference value: 198.83 +/- 11.46%); assay type: cell-based; details: B16-F10

Structure (SMILES) | level, % of control at 0.5 µM (B16-F10 [1]) [%] | inhibition (B16-F10 [2]) | level, % of control at 4 µM (B16-F10 [3]) [%] | response, % of control at 16 µM (B16-F10 [4]) [%] | inhibition (B16-F10 [5]) | level, % of control at 16 µM (B16-F10 [6]) [%] | response, % of control at 4 µM (B16-F10 [7]) [%] | level, % of control at 16 µM (B16-F10 [8]) [%] | inhibition (B16-F10 [9]) | residual activity [10] [%] | residual activity [11] [%] | inhibition (B16-F10 [12]) | response, % of control at 0.5 µM (B16-F10 [13]) [%] | level, % of control at 4 µM (B16-F10 [14]) [%] | level, % of control at 0.5 µM (B16-F10 [15]) [%] | inhibition (B16-F10 [16]) | residual activity [17] [%] | inhibition (B16-F10 [18]) | inhibition (B16-F10 [19]) | inhibition [20] [%]
O=C1NC(=O)/C(=C/c2ccc(O)cc2O)S1 | 151 | inactive | 183 | 83.1 | Dose-dependent effect | 172 | 154 | 100 | Dose-dependent effect | 31.8 | 60.5 | Active | 177 | 114 | 200 | Dose-dependent effect | 84.8 | Dose-dependent effect | Dose-dependent effect | –
CC1(C)N([O])C(c2ccc(C(=O)O)cc2)=[N+]([O-])C1(C)C | – | – | – | 153 | – | 206 | – | 173 | – | – | – | Active | – | – | – | – | – | – | – | 34.3
